Data: US20230346744A1, “SULFUR-CONTAINING COMPOUND USEFUL FOR TREATING OR PREVENTING PRESBYOPIA” (SANTEN PHARMACEUTICAL CO., LTD., priority 2020, published 2023)

What was measured:
Type in all cases: in vivo
C57BL/6J mice [1] = experiment: Pharmacological Test-1: 3 times-daily instillation for 2 weeks, lens elasticity; conditions: 3 times per day for 14 days; for Lens elasticity improvement: 0.03% (w/v) sample, 2.5 μL/eye, 9-month-old mice, vs vehicle control; for Lens elasticity effect compared with the vehicle control group (in words): 0.03% sample group
Description: The effect of 3 times-daily instillation of Compound 1 for 2 weeks on the lens elasticity was examined. The tests were conducted with reference to the methods described in InvestOphthalmol Vis Sci, 57, 2851-2863, 2016.
A vehicle comprising 1.0% (w/v) of polyoxyl 35 castor oil (hereinafter also referred to as “CO35”), 0.1% (w/v) of ethyl pyruvate, 0.269% (w/v) of sodium dihydrogenphosphate monohydrate (NaH2 PO4.H2O), 0.433% (w/v) of disodium hydrogenphosphate (Na2 HPO4), 0.2% (w/v) of hydroxypropyl methylcellulose, 0.5% (w/v) of NaCl, and purified water (appropriate amount) was prepared.
Compound 1 was stirred with the addition of the vehicle to give a 0.03% (w/v) solution. After preparation, it was refrigerated.
EVO6 was stirred with the addition of the vehicle to give a 0.03% (w/v) solution, which was for comparison in the test for Compound 1. After preparation, it was refrigerated.
1) Each test sample (2.5 μL/eye) was instilled into both eyes of 9-month-old C57BL/6J mice with a Pipetman 3 times per day (around 9:00, 13:00 and 17:00) for 14 days.
(§1) 2) After the final instillation, the mice were euthanized by carbon dioxide inhalation, and then the eyeballs were extracted and rinsed with Hank's balanced salt solution (HBSS).
(§2) 3) The sclera near the optic nerve was cut with a razor, the lens was removed through the incision, and the removed lens was immersed in HBSS.
(§3) 4) The lens was placed on a glass slide, and an all-in-one fluorescence microscope BZ-9000 (Keyence) was used to capture an image of the lens (Image a).
(§4) 5) Next, one cover glass (Corning(registered trade mark) 22×22 mm Square) was placed on the lens, and an image in which the thickness of the lens changed due to the weight was similarly captured (Image b).
6) A change in the lens diameter was calculated from the following Equation 1 wherein the lens diameter of Image a is subtracted from the lens diameter of Image b. Then, the lens elasticity improvement of each sample group compared with the vehicle control group was calculated from Equation 2 described below. The mean value of the vehicle control group was based on 8 eyes, and the mean value of each of the sample groups of Compound 1 and EVO6 was based on 10 eyes.
(§5) Change in lens diameter=Lens diameter in Image b of each test sample−Lens diameter in Image a of each test sample Equation 1
(§6) Lens elasticity improvement of each sample group=Mean change in lens diameter of each Test sample group−Mean change in lens diameter of Vehicle control group Equation 2

C57BL/6J mice [2] = experiment: Pharmacological Test-3: once-daily instillation of Compounds 1, 2 and 3 for 2 weeks, lens elasticity; conditions: 0.03% sample, 2.5 μL/eye, once per day for 14 days, 8-month-old mice, vs vehicle control
Description: The effect of once-daily instillation of each of Compounds 1, 2 and 3 for 2 weeks on the lens elasticity was examined.
(§7) A vehicle comprising 1.0% (w/v) of CO35, 0.1% (w/v) of ethyl pyruvate, 0.269% (w/v) of sodium dihydrogenphosphate monohydrate (NaH2 PO4.H2O), 0.433% (w/v) of disodium hydrogenphosphate (Na2HPO4), 0.2% (w/v) of hydroxypropyl methylcellulose, 0.5% (w/v) of NaCl, and purified water (appropriate amount) was prepared.
Each of Compounds 1 and 2 was stirred with the addition of the vehicle to give a 0.1% (w/v) solution.
To Compound 3 was added the vehicle to give a 0.1% (w/v) suspension. The resulting 0.1% (w/v) suspension was diluted with the vehicle to give a 0.03% (w/v) solution. Further, the resulting 0.03% (w/v) solution was diluted with the vehicle to give a 0.01% (w/v) solution.
After preparation, all were frozen.
1) Each test sample (2.5 μL/eye) was instilled into both eyes of 8-month-old C57BL/6J mice with a Pipetman once per day (around 9:00) for 14 days.
as §1, §2, §3, §4
(§8) 6) A change in the lens diameter was calculated from Equation 1 wherein the lens diameter of Image a is subtracted from the lens diameter of Image b, as described below. Then, the lens elasticity improvement of each sample group compared with the vehicle control group was calculated from Equation 2 described below. The mean value of each group was based on 10 eyes.
as §5, §6

C57BL/6J mice [3] = experiment: Pharmacological Test-2: once-daily instillation of Compound 1 for 2 weeks, lens elasticity; conditions: once per day for 14 days; for Lens elasticity improvement: 2.5 μL/eye, 9-month-old mice, vs vehicle control
Description: The effect of once-daily instillation of Compound 1 for 2 weeks on the lens elasticity was examined.
as §7
To Compound 1 was added the vehicle to give a 0.1% (w/v) solution. The resulting 0.1% (w/v) solution was diluted with the vehicle to give a 0.03% (w/v) solution. Further, the resulting 0.03% (w/v) solution was diluted with the vehicle to give a 0.01% (w/v) solution. After preparation, all were frozen.
1) Each test sample (2.5 μL/eye) was instilled into both eyes of 9-month-old C57BL/6J mice with a Pipetman once per day (around 9:00) for 14 days.
as §1, §2, §3, §4
6) A change in the lens diameter was calculated from Equation 1 wherein the lens diameter of Image a is subtracted from the lens diameter of Image b, as described below. Then, the lens elasticity improvement of each sample group compared with the vehicle control group was calculated from Equation 2 described below. The mean value of the vehicle control group was based on 9 eyes, and the mean value of each of the sample groups of Compound 1 was based on 10 eyes.
as §5, §6

Japanese White rabbit = experiment: Ocular irritation test-1 (McDonald-Shadduck method); parameters: key to Irritation Score of anterior segment of the eye: Discharge / Irritation Score of anterior segment of the eye: Anterior chamber flare / Irritation Score of anterior segment of the eye: Light reflex / Irritation Score of anterior segment of the eye: Iris / Irritation Score of anterior segment of the eye: Corneal opacity / Irritation Score of anterior segment of the eye: Corneal angiogenesis / Irritation Score of anterior segment of the eye: Corneal epithelial disorder / Irritation Score of anterior segment of the eye: Conjunctival hyperemia / Irritation Score of anterior segment of the eye: Conjunctival edema: —: No noteworthy findings; conditions: 50 μL/eye, 10 times at 30-minute intervals
Description: A vehicle eye drop and a 0.03% (w/v) Compound 1 eye drop were prepared in the same manner as Preparation of Test sample in Pharmacological test-1.
The vehicle eye drop, and the 0.03% (w/v) Compound 1 eye drop were each instilled into one eye of a Japanese White rabbit at a dose volume of 50 μL/eye with pipette 10 times at 30-minute intervals. One hour after the final instillation, ocular irritation of anterior segment of the eye was evaluated using a slit lamp according to the McDonald-Shadduck method.
Observation for corneal epithelial disorder was conducted 3 hours after the final instillation.
The ocular irritation of anterior segment of the eye was scored according to the following criteria: • 1: slight; +2: moderate; +3: severe

C57BL/6J mice [4] = experiment: Reference Pharmacological Test 1: effect of EV06 instillation on lens elasticity; conditions: 3 times per day for 15 to 17 days; for Lens elasticity improvement: 2.5 μL/eye, 8-month-old mice, vs vehicle control
Description: The effect of lipoic acid choline ester (EV06) on the lens elasticity was examined. The tests were conducted with reference to the methods described in InvestOphthalmol Vis Sci, 57, 2851-2863, 2016. EV06 is a compound represented by the following formula: A vehicle comprising 0.1% (w/v) of ethyl pyruvate, 0.269% (w/v) of sodium dihydrogenphosphate monohydrate (NaH2PO4.H2O), 0.433% (w/v) of disodium hydrogenphosphate (Na2HPO4), 0.2% (w/v) of hydroxypropyl methylcellulose, 0.5% (w/v) of NaCl, and purified water (appropriate amount) was prepared. EVO6 was sonicated with the addition of the vehicle to prepare a 5% (w/v) suspension. The resulting 5% (w/v) suspension was diluted with the vehicle to prepare a 1.5% (w/v) solution. Further, the resulting 1.5% (w/v) solution was diluted with the vehicle to prepare a 0.5% (w/v) solution. The total amount of each sample to be used in one day was prepared before use. 1) Each test sample (2.5 μL/eye) was instilled into the right eye of 8-month-old C57BL/6J mice with a Pipetman 3 times per day (around 9:00, 13:00 and 17:00) for 15 to 17 days. 2) After the final instillation, the mice were euthanized by carbon dioxide inhalation, and then the eyeballs were extracted and rinsed with Hank's balanced salt solution (HBSS). 3) The sclera near the optic nerve was cut with a razor, the lens was removed through the incision, and the removed lens was immersed in HBSS. 4) The lens was placed on a glass slide, and an all-in-one fluorescence microscope BZ-9000 (Keyence) was used to capture an image of the lens (Image a). 5) Next, one cover glass (Corning^(registered trade mark) 22×22 mm Square) was placed on the lens, and an image in which the thickness of the lens changed due to the weight was similarly captured (Image b). 6) A change in the lens diameter was calculated from Equation 1 wherein the lens diameter of Image a is subtracted from the lens diameter of Image b, as described below. Then, the lens elasticity improvement of each sample group compared with the vehicle control group was calculated from Equation 2 described below. The mean of the vehicle control group was based on 6 eyes and the mean of each EV06 sample group was based on 12 eyes. Change in lens diameter=Lens diameter in Image b of each test sample−Lens diameter in Image a of each test sample Equation 1 Lens elasticity improvement of each sample group=Mean change in lens diameter of each EV06 sample group−Mean change in lens diameter of Vehicle control group equation 2

C57BL/6J mice [5] = experiment: Pharmacological Test-5: once-daily instillation of Compounds 5, 6 and 7 for 2 weeks, lens elasticity; conditions: once per day for 14 days
Description: The effect of once-daily instillation of each of Compounds 5, 6, and 7 for 2 weeks on the lens elasticity was examined.
as §7
Compound 5 was stirred with the addition of the vehicle to give a 0.1% (w/v) suspension. The resulting 0.1% (w/v) suspension was diluted with the vehicle to give a 0.03% (w/v) suspension.
Compound 6 was stirred with the addition of the vehicle to give a 0.1% (w/v) suspension. The resulting 0.1% (w/v) a suspension was diluted with the vehicle to give a 0.03% (w/v) suspension.
Compound 7 was stirred with the addition of the vehicle to give a 0.1% (w/v) suspension.
After preparation, all were refrigerated.
EVO6 was stirred with the addition of the vehicle to give a 0.03% (w/v) solution, which was for comparison in the test for Compounds 5, 6 and 7. After preparation, it was refrigerated.
1) Each test sample (2.5 μL/eye) was instilled into both eyes of 8-month-old C57BL/6J mice with a Pipetman once per day (around 13:30) for 14 days.
as §1, §2, §3, §4
as §8, with “8” for “10”
as §5, §6

[6] = 0.03% eye drop, 1 hour after the final instillation

With OCCCCC[C@@H](S)CCS [Compound 1, (R)-6,8-Dimercaptooctan-1-ol] the Lens elasticity improvement (C57BL/6J mice [1]) was 53.8 μm, the “Lens elasticity effect compared with the vehicle control group (in words)” value (C57BL/6J mice [1]) was “potent elasticity improving effect” and the Lens elasticity improvement (C57BL/6J mice [2]) was 55.5 μm. It also gave a Lens elasticity improvement (C57BL/6J mice [3]; 0.01% (w/v) sample) of 17.5 μm, a Lens elasticity improvement (C57BL/6J mice [3]; 0.03% (w/v) sample) of 53.0 μm and a Lens elasticity improvement (C57BL/6J mice [3]; 0.1% (w/v) sample) of 63.3 μm. The “Lens elasticity effect (in words)” value (C57BL/6J mice [3]; all of the concentrations of 0.01%, 0.03% and 0.1%) was “showed an elasticity improving effect”, the “Irritation in anterior segment of the eye (in words)” value (Japanese White rabbit; 0.03% (w/v) eye drop) was “No irritation was observed” and the “Irritation Score of anterior segment of the eye: Anterior chamber flare” value (Japanese White rabbit; [6]) was “—”. The “Irritation Score of anterior segment of the eye: Conjunctival edema” value (Japanese White rabbit; [6]) was “—”, the “Irritation Score of anterior segment of the eye: Corneal angiogenesis” value (Japanese White rabbit; [6]) was “—” and the “Irritation Score of anterior segment of the eye: Corneal opacity” value (Japanese White rabbit; [6]) was “—”. The “Irritation Score of anterior segment of the eye: Discharge” value (Japanese White rabbit; [6]) was “—”, the “Irritation Score of anterior segment of the eye: Iris” value (Japanese White rabbit; [6]) was “—” and the “Irritation Score of anterior segment of the eye: Light reflex” value (Japanese White rabbit; [6]) was “—”. For the same compound, the “Irritation Score of anterior segment of the eye: Conjunctival hyperemia” value (Japanese White rabbit; 0.03% eye drop, 1 hour after the final instillation, scale +1 slight, +2 moderate, +3 severe) was “—” and the “Irritation Score of anterior segment of the eye: Corneal epithelial disorder” value (Japanese White rabbit; 0.03% eye drop, 3 hours after the final instillation) was “—”.
C[N+](C)(C)CCOC(=O)CCCC[C@@H]1CCSS1.[Cl-] [EV06, lipoic acid choline ester, reference compound] was tested, and the Lens elasticity improvement (C57BL/6J mice [4]; 0.5% (w/v) sample) was 28.8 μm, the “Lens elasticity effect compared with the vehicle control group (in words)” value (C57BL/6J mice [4]; 0.5%, 1.5% and 5% groups) was “elasticity improving effect” and the Lens elasticity improvement (C57BL/6J mice [4]; 1.5% (w/v) sample) was 47.3 μm. The Lens elasticity improvement (C57BL/6J mice [4]; 5% (w/v) sample) was 48.7 μm, the Lens elasticity improvement (C57BL/6J mice [1]) was 3.6 μm and the “Lens elasticity effect compared with the vehicle control group (in words)” value (C57BL/6J mice [1]) was “no improvement in lens elasticity”. For the same compound, the “Lens elasticity effect (in words)” value (C57BL/6J mice [5]; 0.03% sample group) was “no elasticity improving effect” and the Lens elasticity improvement (C57BL/6J mice [5]; 0.03% sample, 2.5 μL/eye, 8-month-old mice, vs vehicle control) was 3.1 μm.
